From publication PMC6731241, “L-Type Amino Acid Transporter 1 (LAT1/Lat1)-Utilizing Prodrugs Can Improve the Delivery of Drugs into Neurons, Astrocytes and Microglia” (Scientific Reports, 2019)
Where two headings read alike, the source gives them in different places.

What was measured:
[1] = tested on: primary cortical neurons and immortalized microglia; test: Cellular uptake of compounds, neurons and microglia (joint range); format: cell-based, mouse; conditions: for Uptake of prodrug relative to parent drug 2: primary cortical neurons and immortalized microglia
Protocol: (§1) Pre-incubation was done with 500 μL of pre-warmed HBSS at 37 °C for 10 min before adding substrates (250 μL in HBSS) for the uptake experiments. The ability of brain cell to carry a known LAT1/Lat1 substrate, the cells were incubated with [^14C]-L-leucine at 37 °C for 2.5 min in uptake buffer (HBSS, 250 μL) containing 0.76–75 μM (0.25 mCi/ml) of [^14C]-L-leucine (PerkinElmer, Waltham, MA, USA).
(§2) The protein concentrations on each plate were determined as a mean of three samples by Bio-Rad Protein Assay, based on the Bradford dye-binding method, using bovine serum albumin (BSA) as a standard protein and measuring the absorbance (595 nm) by multiplate reader (EnVision, Perkin Elmer, Inc., Waltham, MA, USA).

[2] = design: method as in PMID 28662899, PMID 27266990; conditions: unspecific brain tissue binding, fraction unbound (fu,brain), equilibrium dialysis; cited from earlier work
mouse primary neurons = test: Cellular uptake of compounds into primary neurons; format: cell-based; conditions: 25, 50 and 100 µM (Fig. 4c)
Protocol: as §1

[3] = tested on: immortalized microglia (BV2); test: Cellular uptake of compounds into immortalized microglia (BV2); format: cell-based, mouse; conditions: 25, 50 and 100 µM (Fig. 4c)
Protocol: as §1

Lat1 [4] = biological target: T1, Lat1 (Mus musculus, UniProt Q9Z127); test: [14C]-L-Leu uptake kinetics in immortalized microglia (BV2); conditions: 0.76–75 µM, 2.5 min
T1 sequence (Q9Z127 whole entry): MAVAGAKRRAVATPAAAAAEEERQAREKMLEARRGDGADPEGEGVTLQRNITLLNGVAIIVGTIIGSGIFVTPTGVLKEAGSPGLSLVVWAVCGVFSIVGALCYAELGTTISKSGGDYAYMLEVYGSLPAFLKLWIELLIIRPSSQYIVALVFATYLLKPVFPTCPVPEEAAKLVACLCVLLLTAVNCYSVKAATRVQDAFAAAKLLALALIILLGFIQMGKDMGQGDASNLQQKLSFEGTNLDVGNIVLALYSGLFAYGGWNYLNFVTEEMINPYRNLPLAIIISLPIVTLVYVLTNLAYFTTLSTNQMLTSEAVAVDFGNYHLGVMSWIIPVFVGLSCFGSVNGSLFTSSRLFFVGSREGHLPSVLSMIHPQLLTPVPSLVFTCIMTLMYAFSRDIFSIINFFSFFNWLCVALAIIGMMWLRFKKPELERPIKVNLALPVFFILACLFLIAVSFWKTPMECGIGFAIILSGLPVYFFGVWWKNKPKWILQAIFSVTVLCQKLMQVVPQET
T1 sequence (P10852 whole entry partner): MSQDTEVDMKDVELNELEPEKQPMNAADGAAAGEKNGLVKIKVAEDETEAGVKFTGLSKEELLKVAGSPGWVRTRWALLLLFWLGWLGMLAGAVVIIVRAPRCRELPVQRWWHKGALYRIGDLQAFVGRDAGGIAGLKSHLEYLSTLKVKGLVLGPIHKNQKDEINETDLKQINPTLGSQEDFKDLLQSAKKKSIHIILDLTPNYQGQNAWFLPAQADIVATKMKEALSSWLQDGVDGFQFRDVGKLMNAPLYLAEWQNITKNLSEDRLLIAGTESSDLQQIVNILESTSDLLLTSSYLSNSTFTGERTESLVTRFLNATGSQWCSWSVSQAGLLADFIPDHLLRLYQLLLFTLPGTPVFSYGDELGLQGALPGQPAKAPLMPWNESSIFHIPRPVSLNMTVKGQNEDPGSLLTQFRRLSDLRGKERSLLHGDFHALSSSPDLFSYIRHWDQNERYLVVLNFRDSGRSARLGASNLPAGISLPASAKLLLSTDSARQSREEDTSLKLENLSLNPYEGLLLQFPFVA

Lat1 [5] = biological target: T1, Lat1; test: [14C]-L-Leu uptake kinetics in primary cortical neurons; conditions: 0.76–75 µM, 2.5 min
Lat1 [6] = biological target: T1, Lat1; test: [14C]-L-Leu uptake kinetics in primary astrocytes; conditions: 0.76–75 µM, 2.5 min
Lat1 [7] = biological target: T1, Lat1; test: [14C]-L-Leu uptake kinetics, primary cortical neurons and immortalized microglia (joint range); conditions: range over primary cortical neurons and immortalized microglia
LAT1/Lat1 = tested on: LAT1/Lat1; design: method as in PMID 11557028, PMID 15567481, PMID 19890975; conditions: human LAT1 transfected cells or cancer cells expressing hLAT1 or rodent Lat1; read-out: Affinity (Km), previously reported values; cited from earlier work
[8] = Bioconversion in primary astrocytes homogenate; format: in vitro ADME, mouse; conditions: for half-life at 400 µM: mouse, primary astrocytes homogenate, pH 7.4, 37 °C
Protocol: (§3) The rates of bioconversion of all studied prodrugs in immortalized BV2 microglia and primary astrocytes homogenates were determined at 37 °C. The cell homogenates were prepared by homogenizing 10 × 10^6 cells/ml in HBSS (pH 7.4) with SoniPerp 150 Plus disintegrator (MSE Ltd., London, UK) for 2 s × 3. The incubation mixtures were prepared by mixing cell homogenate (final protein concentration 1.0 mg/mL) with HBSS buffer and 10 mM prodrug stock solution in DMSO (the final concentration of prodrugs was 400 µM and the DMSO concentration […]). The mixture was then incubated for 5 h and the samples (50 µL) were withdrawn at appropriate intervals. The proteins in the samples were precipitated with ice-cold acetonitrile (150 µL) and the samples were centrifuged for 5 min at 12 000 × g at room temperature. The supernatants were collected and analyzed by the LC-MS methods as reported earlier[19],[24],[26]. In blank reactions (chemical stability), the cell homogenate was replaced with same volume of buffer. The pseudo-first-order half-lives (t½) for the rates of bioconversion of the prodrugs were calculated from the slope of the linear portion of the plotted logarithm of remaining prodrug concentration versus time.

Lat1 [9] = biological target: T1, Lat1; test: Competitive prodrug uptake with LAT1/Lat1-inhibitor (KMH-233), all cell types; format: cell-based; design: neurons and microglia also express functional Lat1 on their cell surface; endogenous in cells; host or cells: mouse primary cortical neurons, mouse primary astrocytes, immortalized mouse microglia (BV2); conditions: 100 µM KMH-233, range over all cell types
Protocol: The competitive uptake in the presence of LAT1/Lat1-inhibitor (KMH-233) was carried out as described above with HBSS buffer solution containing 1–10 µM of the studied compounds. The cells were pre-incubated with 100 µM LAT1/Lat1-inhibitor for 10 min and the incubation mixture was removed before adding the studied prodrug and LAT1/Lat1-inhibitor on the cells. The competitive uptake (30 min) with the inhibitor was then carried out as the normal uptake described above. The amounts of studied compounds were analyzed by the LC-MS method and calculated from the spiked standard curve and normalized with the protein concentrations.

[10] = Bioconversion in immortalized BV2 microglia homogenate; format: in vitro ADME, mouse; conditions: for half-life at 400 µM: mouse, pH 7.4, 37 °C
Protocol: as §3

[11] = tested on: immortalized microglia (BV2); test: Cell viability of immortalized microglia (resazurin); format: cell-based; conditions: 100 µM, 24 h
Protocol: 2. Effects of LAT1-Utilizing Prodrugs and Their Parent Drugs on the Cell Viability of Immortalized
Immortalized microglia (BV2) were seeded at the density of 2 × 10^4 cells/well onto collagen-coated 96-well plates. The cells were used for the proliferation experiments one day after seeding. A concentration of 100 µM of studied compounds were added into the growth medium and incubated for 24 h, after which the cell viability was determined by resazurin cell proliferation kit (Sigma, St.
Louis, MO, USA). The samples were measured fluorometrically by monitoring the increase in fluorescence at a wavelength of 590 nm using an excitation wavelength of 560 nm (EnVision, Perkin Elmer, Inc., Waltham, MA, USA), which is directly proportional to aerobic respiration and cellular metabolism of cells. The cell death was confirmed in the decrease of cell amount by visualizing the […]
Figure S2. The cell viability of immortalized microglia (BV2) after 24 h incubation of 100 µM LAT1-utilizing prodrugs (PD1-PD6) and their parent drugs (D1-D3) presented as percentages (%) compared to the untreated cells (ctrl) (mean ± SD, n=3-6). An asterisk denotes a statistically significant difference from the respective control (** P < 0.01, * P < 0.05 one-way ANOVA, followed by […]

[12] = cited from earlier work
mouse primary astrocytes = test: Cellular uptake of compounds into primary astrocytes; format: cell-based
Protocol: as §1, §2

[13] = cited from earlier work; remark: listed apart in the source
[14] = 400 µM, read-out: Half-life of bioconversion

Compound: COc1cc(/C=C/C(=O)O)ccc1O [D3, ferulic acid, reference compound]
- Amount in cells (under the detection limit) ([1]; neurons and microglia): < 1.0 nM
- Brain Protein Binding fu (%) [2]: 26.0%
- Cell uptake (mouse primary neurons): below LLOQ
- Cell uptake [3]: below LLOQ

Compound: CC(C)C[C@H](N)C(=O)O [[^14C]-L-Leu, L-leucine]
- Vmax (Lat1 [4]): 0.84 ± 0.12 nmol/min/mg protein
- Km (Lat1 [5]): 146 ± 47.3 µM
- Vmax (Lat1 [5]): 1.90 ± 0.44 nmol/min/mg protein
- Km (Lat1 [6]): 65.9 ± 14.3 µM
- Vmax (Lat1 [6]): 2.92 ± 0.36 nmol/min/mg protein
- Km (Lat1 [7]): 85.8 to 146 µM
- Vmax (Lat1 [7]): 0.84–1.90 nmol/min/mg of protein
- Km (LAT1/Lat1): 9 to 52 µM

Compound: COc1cc(/C=C/C(=O)NCc2cccc(C[C@@H](N)C(=O)O)c2)ccc1O [PD4]
- Stability in cell homogenate ([8]; astrocytes homogenate): stable
- Inhibition of prodrug uptake by LAT1/Lat1-inhibitor (Lat1 [9]; 10 µM prodrug): 83.24–85.23%
- Brain Protein Binding fu (%) [2]: 13.0%
- Stability in cell homogenate ([10]; microglia homogenate): stable
- Effect on cell viability [11]: slightly increased the cell proliferation

Compound: CC(C(=O)Nc1cccc(C[C@H](N)C(=O)O)c1)c1cccc(C(=O)c2ccccc2)c1 (some centres unmarked) [PD2]
- Uptake of prodrug relative to parent drug 2 [1]: 1–7 times
- Stability in cell homogenate ([8]; astrocytes homogenate): completely stable
- Brain Protein Binding fu (%) [2]: 6.2%
- Stability in cell homogenate ([10]; microglia homogenate): completely stable
- Half-life in vivo (release of ketoprofen) ([12]; brain): 0.45 h
- Half-life in vivo (release of ketoprofen) ([12]; liver): 0.383 h
- Half-life in vivo (release of ketoprofen) ([12]; plasma): 0.267 h
- Uptake of prodrug relative to ketoprofen (mouse primary astrocytes): 10–80 times
- Stability in brain S9 subcellular fraction ([13]; in vitro media lack co-factors): stable and do not release ketoprofen at all

Compound: COc1cc(/C=C/C(=O)Oc2cccc(C[C@H](N)C(=O)O)c2)ccc1O [PD6]
- half-life at 400 µM ([8]; astrocytes homogenate, read-out: Estimated half-life of bioconversion): > 9 h
- half-life at 400 µM ([10]; tissue homogenate, microglia homogenate, read-out: Estimated half-life of bioconversion): > 9 h
- Intact prodrug detected after 5 h ([13]; brain S9 subcellular fraction): 70%

Compound: COc1cc(/C=C/C(=O)Nc2cccc(C[C@H](N)C(=O)O)c2)ccc1O [PD5]
- Stability in cell homogenate ([8]; astrocytes homogenate): stable
- Brain Protein Binding fu (%) [2]: 7.0%
- Stability in cell homogenate ([10]; microglia homogenate): stable
- Effect on cell viability [11]: slightly increased the cell proliferation

Compound: N[C@H](Cc1cccc(C(=O)OCc2ccc(-c3ccc(-c4ccc5c(c4)COC5=O)s3)cc2)c1)C(=O)O [PD1]
- Uptake of prodrug relative to its parent drug ([1]; neurons and microglia): 10–17
- half-life at 400 µM [8, 14]: 5.81 ± 0.402 h
- Brain Protein Binding fu (%) [2]: 1.4%
- half-life at 400 µM ([10]; tissue homogenate, immortalized microglia homogenate, 400 µM, read-out: Half-life of bioconversion): 3.96 ± 0.738 h
- Half-life in vivo ([12]; brain): 1.4 h
- Half-life in vivo ([12]; liver): 1.25 h
- Half-life in vivo ([12]; plasma): 1.57 h
- Half-life in brain S9 subcellular fraction ([13]; in vitro, listed as Prodrug 1): approximately 4.7 h
- Half-life in brain S9 subcellular fraction ([13]; in vitro, listed as prodrug 1): approximately 5 h

Compound: O=C1OCc2cc(-c3ccc(-c4ccc(CO)cc4)s3)ccc21 [D1, reference compound]
- Brain Protein Binding fu (%) [2]: 0.03%

Compound: CC(C(=O)Oc1cccc(C[C@H](N)C(=O)O)c1)c1cccc(C(=O)c2ccccc2)c1 (some centres unmarked) [PD3]
- Uptake of prodrug relative to parent drug 2 [1]: 1–7 times
- half-life at 400 µM [8, 14]: 4.71 ± 0.263 h
- Inhibition of prodrug uptake by LAT1/Lat1-inhibitor (Lat1 [9]; 1 µM prodrug): 47.41–58.32%
- half-life at 400 µM ([10]; immortalized BV2 microglia homogenate, immortalized microglia homogenate, 400 µM, read-out: Half-life of bioconversion): 3.35 ± 0.224 h
- Uptake of prodrug relative to ketoprofen (mouse primary astrocytes): 10–80 times
- Half-life in brain S9 subcellular fraction ([13]; approximate): ~1 h
- t½ in mouse brain S9 subcellular fraction ([13]; conversion to ketoprofen): 0.866 ± 0.0387 h
